The values that follow come from patent publication US8461202B2, “Composition for treating infectious diseases” (priority 2007, dated 2013).

One experiment addresses T1, H. pylori flavodoxin (Helicobacter pylori, UniProt O25776).
T1 construct: made in house; host or cells: E. coli BL21 (flavodoxin); E. coli JVQ2 (PFOR); E. coli BL21(DE3) (FqrB)
T1 sequence (O25776 1-164): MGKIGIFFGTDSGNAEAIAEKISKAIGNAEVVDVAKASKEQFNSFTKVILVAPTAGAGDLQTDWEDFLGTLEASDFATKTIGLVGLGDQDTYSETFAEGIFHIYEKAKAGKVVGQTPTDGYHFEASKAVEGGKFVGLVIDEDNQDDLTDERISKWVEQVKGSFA
Description: Inhibition of the sequential electron transfer reaction pyruvate-PFOR-flavodoxin-FqrB-NADP+ (NADPH formation at 340 nm). Type of experiment: biochemical. The following applies: 50 μM compound; anaerobic; absorbance at 340 nm; 10 μM Fld. From the text: Measurement of the absorbance (A) (AU is the unit of absorbance) at 340 nm against time (t) in seconds (s).
Flavodoxin is an essential protein for Helicobacter pylori survival as it participates in a fundamental reaction for obtaining energy from the oxidative decarboxylation of pyruvate. In this reaction, flavodoxin transfers electrons between the PFOR enzyme and the FqrB enzyme, which releases them to NADP^+.
The sequential reaction of electron transfer between pyruvate, PFOR, flavodoxin, FqrB and NADP^+ (activity assay) was followed spectroscopically by the appearance of the signal at 340 nm with the formation of NADPH. The reaction mixture contained 100 mM potassium phosphate pH 7, 10 mM pyruvate, 0.18 mM CoA, 1 mM MgCl, 0.3 mM NADP^+, 0.09 mg/ml PFOR, 10 μM Fld and 0.15 μM FqrB. The mixture, except CoA, was placed in a cuvette specially designed for anaerobic conditions. Oxygen was removed by means of 5 minute cycles with alternate flows of vacuum and argon. The reaction was started by the addition of 0.18 mM coenzyme A (CoA) that was held in a compartment inside the same cuvette. The reaction completed 15 minutes after adding the CoA reagent.
The inhibition assays were carried out in the same conditions as the activity assays previously described, adding an additional 50 μM of the disclosed compound of the general formula shown in (II) to the reaction cuvette.

The target of a further experiment is T2, flavodoxin of H. pylori (Helicobacter pylori, UniProt O25776).
T2 construct: made in house; host or cells: E. coli BL21
The experiment can be described thus: Binding to flavodoxin by isothermal titration calorimetry (ITC). The following applies: 50 mM EPPS buffer, pH 9 with 7% DMSO, protein around 20 μM, read-out: affinity for flavodoxin (affinity constant). The procedure:
The specific binding of the inhibitors of the present invention to flavodoxin of H. pylori was confirmed by isothermal titration calorimetry (ITC). This technique not only measures the affinity of each compound for the target protein, but also determines the contribution of the enthalpic and entropic components of binding.
The binding experiments were carried out in 50 mM EPPS buffer, pH 9 with 7% DMSO, with the inhibitor in the injection syringe at a concentration of 300-500 μM, and the protein around 20 μM in the measurement cell.
A general note: Isothermal titration calorimetry measures the heat released or taken up as one component is titrated into another.

As to `O=[N+]([O-])/C=C/c1cc(C(F)(F)F)cc(C(F)(F)F)c1` [(II)], the “inhibition of product (NADPH) formation in the essential reaction of H. pylori” value at H. pylori flavodoxin is given as “almost total”. The Kd on flavodoxin of H. pylori is 8 µM.
